Columns and labels:
[1] = test system: peroxynitrite in GD-HUVECs; experiment: Peroxynitrite levels by flow cytometry, HKGreen-4A probe; assay type: cell-based, human; conditions: GD-HUVEC
Text: (§1) Cell endothelial cultures and experimental protocols: umbilical cords were obtained from randomly selected healthy Caucasian (Control, C) and with Gestational Diabetes (GD) mothers delivering at the Hospital of Chieti and Pescara. All procedures were in agreement with the ethical standards of the Institutional Committee on Human Experimentation (Reference Number: 1879/09COET) and with the Declaration of Helsinki Principles. After approval of the protocol by the Institutional Review Board, signed informed consent was obtained from each participating subject. Primary C- and GD-HUVECs were obtained and used between the 3rd and 5th passages in vitro. To evaluate the potential cytotoxicity of ovothiol, HUVECs were stimulated for 24 h with different doses (10-100 μM) of ovothiol A. The best doses of ovothiol A were used to evaluate their effects on the cells treated with TNF (1 ng/ml, Sigma Aldrich) which activated the inflammatory response. Briefly, HUVECs were grown to sub-confluence in complete culture medium DMEM/M199 (Mascia Brunelli, Italia). The cells were pre-incubated with ovothiol A (10 and 50 μM) for 24 hours or with medium alone as basal condition. Subsequently the cells were stimulated with TNF for 16 hours.
(§2) Flow cytometry: for flow cytofluorimetry analysis, C- and GD-HUVECs were stimulated as described in the experimental protocols. Non-permeabilized cells were detached by tetra-acetic ethylene-diamine acid solution (EDTA) 5 mM, washed and resuspended in bovine serum albumin (BSA) 0.5%. Cells harvested by centrifugation at 800 rpm for 15 min were incubated with anti-VCAM-1 PE-conjugate (1:100, phycoerythrin; Biolegend, San Diego, Calif., USA) and anti-ICAM-1 FITC-conjugate (1:100, fluorescein isothiocyanate; Biolegend) antibodies, both for 30 min at 4° C. The intracellular levels of peroxynitrite (ONOO—) were detected in C- and GD-HUVECs by using the HKGreen-4A probe (10 μM, 30 min at 37° C.) synthesized and provided by the laboratory of Prof. Dan Yang's. Reactive Oxygen Species (ROS) levels were evaluated with the fluorogenic reagent dichlorofluorescein diacetate (DCF-DA, Sigma-Aldrich) (20 μM, 45 min at 37° C.). All samples were analyzed using a FACS Calibur or FACS Canto II (BD Bioscences). The levels of membrane proteins (VCAM-1 and ICAM-1), fluorescence detection of ONOO— and ROS were evaluated by cytometric analysis of over 10.000 events for each sample. All data were analyzed using FACS Diva (BD Bioscences) and FlowJo v.8.8.6 software (TreeStar, Ashland, Oreg.) and expressed as percentage (%) of positive cells or MFI (Mean Fluorescence Intensity) Ratio. The MFI Ratio was calculated by dividing the MFI of positive events by the MFI of negative events (MFI of secondary antibody).

[2] = test system: peroxynitrite in C-HUVECs; experiment: as above; assay type: cell-based, human; conditions: C-HUVEC
Text: as §1, §2

cGMP levels in C-HUVECs = experiment: Cyclic guanosine mono phosphate assay (cGMP), EIA; assay type: cell-based, human
Method: Cyclic guanosine mono phosphate assay (cGMP): intracellular cGMP levels were evaluated by using a commercially available Enzyme Immunoassay (EIA) kit (GE Healthcare, Little Chalfont, Buckinghamshire, UK).

Hep-G2 cell line = conditions: epatocarcinoma cell lines; cited from earlier work
ROS in GD-HUVECs = experiment: ROS levels by flow cytometry (DCF-DA); assay type: cell-based, human; conditions: GD-HUVEC, under inflammatory conditions (TNFα)
Text: (§3) Cell endothelial cultures and experimental protocols: umbilical cords were obtained from randomly selected healthy Caucasian (Control, C) and with Gestational Diabetes (GD) mothers delivering at the Hospital of Chieti and Pescara. All procedures were in agreement with the ethical standards of the Institutional Committee on Human Experimentation (Reference Number: 1879/09COET) and with the Declaration of Helsinki Principles. After approval of the protocol by the Institutional Review Board, signed informed consent was obtained from each participating subject. Primary C- and GD-HUVECs were obtained and used between the 3rd and 5th passages in vitro. […]
(§4) Flow cytometry: for flow cytofluorimetry analysis, C- and GD-HUVECs were stimulated as described in the experimental protocols. […] The intracellular levels of peroxynitrite (ONOO—) were detected in C- and GD-HUVECs by using the HKGreen-4A probe (10 μM, 30 min at 37° C.) synthesized and provided by the laboratory of Prof. […] Reactive Oxygen Species (ROS) levels were evaluated with the fluorogenic reagent dichlorofluorescein diacetate (DCF-DA, Sigma-Aldrich) (20 μM, 45 min at 37° C.). All samples were analyzed using a FACS Calibur or FACS Canto II (BD Bioscences). The levels of membrane proteins (VCAM-1 and ICAM-1), fluorescence detection of ONOO— and ROS were evaluated by cytometric analysis of over 10.000 events for each sample. […]

ROS in C-HUVECs = experiment: ROS levels by flow cytometry (DCF-DA); assay type: cell-based, human; conditions: C-HUVEC, in the absence of TNFα
Text: as §3, §4

ICAM-1 on GD-HUVEC = experiment: Flow cytometry, membrane exposure of ICAM-1; assay type: cell-based, human; conditions: 50 μM ovothiol A, TNFα
Text: as §3, §4

ICAM-1 on C-HUVEC = experiment: Flow cytometry, membrane exposure of ICAM-1; assay type: cell-based, human; conditions: 50 μM ovothiol A, TNFα
Text: as §3, §4

VCAM-1 on C-HUVEC = experiment: Flow cytometry, membrane exposure of VCAM-1; assay type: cell-based, human; conditions: 50 μM ovothiol A, TNFα
Text: as §3, §4

VCAM-1 on GD-HUVEC = experiment: Flow cytometry, membrane exposure of VCAM-1; assay type: cell-based, human; conditions: 50 μM ovothiol A, TNFα
Text: as §3, §4

[3] = test system: U937 monocytes adhesion to GD-HUVECs; experiment: Adhesion of monocytes to endothelium assay; assay type: cell-based, human; conditions: GD-HUVEC, 24 hours pre-treatment with 10 and 50 μM, TNFα 1 ng/ml 16 hours
Text: as §3
(§5) Adhesion of monocytes to endothelium assay: adhesion of U937 monocytes to C- and GD-HUVECs was evaluated in the basal state, after 16 hours of TNFα treatment (1 ng/ml) and in presence of ovothiol A (10-50 μM). The cells were grown to confluence in six-well culture plates and U937 adhesion was evaluated as previously described (Di Tomo, P., Lanuti, P., Di Pietro, N., Baldassarre, M. P. A., Marchisio, M., Pandolfi, A., Consoli, A., Formoso, G. (2017) Liraglutide mitigates TNF-α induced pro-atherogenic changes and Microvesicles release in HUVEC from diabetic women. Diabetes Metab. Res. Rev. doi: 10.1002/dmrr.2925).

[4] = test system: U937 monocytes adhesion to C-HUVECs; experiment: Adhesion of monocytes to endothelium assay; assay type: cell-based, human; conditions: C-HUVEC, 24 hours pre-treatment with 10 and 50 μM, TNFα 1 ng/ml 16 hours
Text: as §3, §5

GD-HUVECs [5] = experiment: Analysis of ovothiol A levels in cell cultures (HPLC); assay type: in vitro ADME, human
Method: (§6) Analysis of Ovothiol A levels in cell cultures: HUVEC cells (1,2×10^6 cellule) were cultured in flasks (25 cm^2) in the absence and in the presence of 50 μM ovothiol A and collected after incubation at different time intervals. The culture media were recovered by centrifugation and frozen for ovothiol A quantitation by HPLC analysis. The cellular pellets were resuspended in PBS pH 7.5, sonicated three times for 15 sec and 30% amplitude. The samples were then centrifuged at 13.000 rpm over 15 min to remove cellular debris, ultrafiltered by Microcon 3 to remove all molecules with MW>3 kDa and frozen for further analysis by HPLC. HPLC analyses were performed in duplicate on an LC10AD instrument equipped with binary pumps and a Shimadzu SPD-10AVP detector set at 254 nm and 280 nm. A Phenomenex Synergi Sphereclone octadecylsilane (25 cm×0.46 cm, 4 μm particle size) column was used with 1% formic acid taken to pH 4.5 with ammonia, as the eluant, at a 0.7 mL/min flow rate.

C-HUVECs [6] = experiment: as above; assay type: in vitro ADME, human
Method: as §6

GD-HUVECs [7] = experiment: MTT assay, cell viability; assay type: cell-based, human; conditions: GD-HUVEC
Text: as §1
(§7) MTT assay: ovothiol effect on the viability of C- and GD-HUVECs was evaluated by the 3-(4,5 dimethylthiazolyl-2)-2,5-diphenyltetrazolium bromide (MTT, Sigma-Aldrich) assay. 1×10^5 cells were plated in 96-well plates, grown to sub-confluence with the medium alone (as control) or stimulated for 24 h with growing doses of ovothiol A (10-100 μM), in the presence or absence of TNFα stimulation (1 ng/ml). A solution of MTT in phosphate buffer saline (PBS) was added to each well to a final concentration of 5 mg/ml. After 3 h incubation at 37° C., the cellular viability was evaluated before addition of 0.2 ml dimethylsulfoxide (DMSO, Sigma-Aldrich) for crystal solubilization in the vital cells. The absorbance at 540 nm was read using a micro-plate reader (SpectraMAX 190, Molecular Devices Inc., Sunnyvale, Calif., USA) and results were expressed as the absorbance at 540 nm (ABS 540 nm).

C-HUVECs [8] = experiment: MTT assay, cell viability; assay type: cell-based, human; conditions: C-HUVEC
Text: as §1, §7

[9] = Ovothiol A level in medium without the cells (HPLC); assay type: in vitro ADME; conditions: Control: medium without the cells, ovothiol A 50 μM
Method: as §6

[10] = test system: intracellular GSH in GD-HUVECs; experiment: Determination of intracellular glutathione levels (GSH); assay type: cell-based, human; conditions: GD-HUVEC, after 10 minutes of incubation of ovothiol A
Method: as §6, with “A Phenomenex Synergi Sphereclone octadecylsilane (25 cm×0.46 cm, 4 μm particle size) column was used with 1% formic acid taken to pH 4.5 with ammonia, as the eluant, at a 0.7 mL/min flow rate.” left out
Determination of intracellular glutathione levels (GSH): total GSH was determined by using the Glutathione Assay Kit (Sigma). […] The supernatant was used for the determination of glutathione by performing a kinetic assay in which catalytic amounts (nmoles) of GSH caused a continuous reduction of 5,5-dithiobis (2-nitrobenzoic acid) (DTNB) to 5-thio-2-nitrobenzoic (TNB), measured at 405 nm by a Thermo Scientific™ Multiskan™ FC Microplate Photometer.

[11] = Ionomycin 50 nM in combination with PMA 0.3 μM, positive control
[12] = pre-treatment with 50 μM, after exposure to TNFα
[13] = GD-HUVECs incubated 30 minutes with ovothiol A 50 μM, HPLC
[14] = C-HUVECs incubated 30 minutes with ovothiol A 50 μM, HPLC
[15] = 50 μM, in the presence or absence of TNFα

Which results are given for `C[C@H](CCC(=O)O)C[C@H](C)C[C@H](C)C(=O)/C=C(\O)[C@H](C)C[C@H](C)C/C=C/[C@@H](C)[C@@H](O)[C@@H](C)[C@@H](O)C[C@@H]1CC[C@@](C)([C@H]2CC[C@@](C)([C@@H](C)O)O2)O1` [Ionomycin, reference compound]?
peroxynitrite formation [1, 11]: induced peroxynitrite formation; peroxynitrite formation [2, 11]: induced peroxynitrite formation; cGMP levels (cGMP levels in C-HUVECs; C-HUVEC, positive control): induced the increase of cGMP levels

Which “cGMP levels, addition of L-NAME to Ionomycin” value (cGMP levels in C-HUVECs; C-HUVEC, Ionomycin-stimulated) does the source give for `COC(=O)[C@@H](N)CCCNC(=N)N[N+](=O)[O-]` [L-NAME, reference compound] here?
Its value is “restored the initial levels”.

For ovothiol A, which autophagy (Hep-G2 cell line) is on record?
Its autophagy is “induces autophagy”.

And the “reduction of reactive oxygen species” value (Hep-G2 cell line)?
Its value is “without inducing a reduction of reactive oxygen species”.

And the levels of peroxynitrite [1, 12]?
Its levels of peroxynitrite is “significantly reduced”.

And the levels of peroxynitrite [2, 12]?
Its levels of peroxynitrite is “significantly reduced”.

What about the ROS levels (ROS in GD-HUVECs) of the same compound?
Its ROS levels is “reduced ROS levels”.

And the ROS levels (ROS in C-HUVECs)?
The ROS levels was “reduced ROS levels”.

What about the “effect on ICAM-1 levels (membrane exposure)” value (ICAM-1 on GD-HUVEC) of the same compound?
The value was “did not reach the statistical significance”.

What about the “effect on ICAM-1 levels (membrane exposure)” value (ICAM-1 on C-HUVEC) of the same compound?
Its value is “did not reach the statistical significance”.

What about the “exposure of VCAM-1 on the membrane” value (VCAM-1 on C-HUVEC) of the same compound?
Its value is “significantly reduced”.

What about the “exposure of VCAM-1 on the membrane” value (VCAM-1 on GD-HUVEC) of the same compound?
Its value is “significantly reduced”.

And the “U937 cell adhesion (number of adherent cells)” value [3]?
The value was “significant reduction”.

And the “U937 cell adhesion (number of adherent cells)” value [4]?
Its value is “only on GD-HUVECs”.

And the “kinetic decay of the compound in the medium” value (GD-HUVECs [5]; GD-HUVEC medium, 50 μM, compared to the medium without the cells)?
Its value is “very rapid”.

And the “ovothiol A in cells” value (GD-HUVECs [5]; [13])?
Its value is 1.53 pmol/cell.

What about the “ovothiol A in medium” value (GD-HUVECs [5]; [13]) of the same compound?
The value was 10.08 ± 1.68 µmol/L.

And the “kinetic decay of the compound in the medium” value (C-HUVECs [6]; C-HUVEC medium, 50 μM, compared to the medium without the cells)?
The value was “very rapid”.

And the “ovothiol A in cells” value (C-HUVECs [6]; [14])?
Its value is 1.18 pmol/cell.

What about the “ovothiol A in medium” value (C-HUVECs [6]; [14]) of the same compound?
The value was 14.86 ± 1.24 µmol/L.

What about the “cell viability parameters (MTT)” value (GD-HUVECs [7]; [15]) of the same compound?
The value was “no significant changes”.

And the “cytotoxicity (viability by MTT assay)” value (GD-HUVECs [7]; 100 μM ovothiol A, 24 h)?
The value was “cytotoxic”.

And the “cell viability parameters (MTT)” value (C-HUVECs [8]; [15])?
Its value is “no significant changes”.

What about the “cytotoxicity (viability by MTT assay)” value (C-HUVECs [8]; 100 μM ovothiol A, 24 h) of the same compound?
Its value is “cytotoxic”.

What about the “cGMP levels, effect of ovothiol A with TNFα treatment” value (cGMP levels in C-HUVECs; C-HUVEC, TNFα+Ovot) of the same compound?
The value was “abolished”.

What about the cGMP levels (cGMP levels in C-HUVECs; C-HUVEC, ovothiol A treatment) of the same compound?
The cGMP levels was “significantly increased”.

What about the “cGMP levels, effect of ovothiol A with L-NAME pre-incubation” value (cGMP levels in C-HUVECs; pre-incubation with L-NAME 1 mM for 45 minutes) of the same compound?
Its value is “not affected”.

And the “ovothiol A in medium” value [9]?
The value was 45 µmol/L.

What about the “intracellular GSH levels” value [10] of the same compound?
The value was “increased significantly”.

Reference: patent US20200276165A1, “OVOTIOLS FOR THE TREATMENT OF CHRONIC LOW-GRADE SYSTEMIC INFLAMMATION (CLGSI) AND RELATED DISEASES” (UNIVERSITA' DEGLI STUDI G. D'ANNUNZIO CHIETI - PESCARA, priority 2017, published 2020)
